Several values for one entry are separate records, joined by “and”; a condition that tells them apart may be missing. Identical values can stand only once. Toxic doses and inconclusive results are not listed.
System: BDF1 mice, P388 leukemia ip, median survival T/C
Assay: NCI In Vivo Anticancer Drug Screen. Data for tumor model P388 Leukemia (intraperitoneal) in B6D2F1 (BDF1) mice
Settings: endpoint: median survival time, higher = longer survival
Method in brief: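 Antitumour effect was judged in vivo: survival in drug-treated mice, normalised to that of vehicle-dosed controls, gives the reported T/C.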

[1] = dose: 100.0 mg/kg/injection, schedule: Q01DX009 (ip), vehicle: saline
[2] = dose: 100.0 mg/kg/injection, schedule: Q04DX003 (ip), vehicle: saline
[3] = dose: 200.0 mg/kg/injection, schedule: Q01DX009 (ip), vehicle: saline
[4] = dose: 200.0 mg/kg/injection, schedule: Q04DX003 (ip), vehicle: saline
[5] = dose: 50.0 mg/kg/injection, schedule: Q01DX009 (ip), vehicle: saline with Tween-80
[6] = dose: 100.0 mg/kg/injection, schedule: Q01DX009 (ip), vehicle: saline with Tween-80
[7] = dose: 200.0 mg/kg/injection, schedule: Q01DX009 (ip), vehicle: saline with Tween-80
[8] = dose: 100.0 mg/kg/injection, schedule: Q04DX003 (ip), vehicle: saline with Tween-80
[9] = dose: 200.0 mg/kg/injection, schedule: Q04DX003 (ip), vehicle: saline with Tween-80
[10] = dose: 400.0 mg/kg/injection, schedule: Q04DX003 (ip), vehicle: saline with Tween-80
[11] = dose: 100.0 mg/kg/injection, schedule: Q04DX002 (ip), vehicle: saline with Tween-80
[12] = dose: 6.25 mg/kg/injection, schedule: Q01DX009 (ip), vehicle: other
[13] = dose: 12.5 mg/kg/injection, schedule: Q01DX009 (ip), vehicle: other
[14] = dose: 25.0 mg/kg/injection, schedule: Q01DX009 (ip), vehicle: other

Structure (SMILES): O=S(O)OS(=O)O
- T/C (dose: 90.0 mg/kg/injection, schedule: Q01DX009 (ip), vehicle: saline): 105 % of control
- T/C [1]: 100 % of control
- T/C [2]: 96 % of control
- T/C (dose: 133.0 mg/kg/injection, schedule: Q01DX009 (ip), vehicle: saline): 95 % of control and 100 % of control
- T/C [3]: 100 % of control and 116 % of control
- T/C [4]: 92 % of control
- T/C (dose: 400.0 mg/kg/injection, schedule: Q01DX009 (ip), vehicle: saline): 104 % of control
- T/C (dose: 400.0 mg/kg/injection, schedule: Q04DX003 (ip), vehicle: saline): 96 % of control

Structure (SMILES): CN(C)[C@@H]1C(=O)C(C(N)=O)=C(O)[C@@]2(O)C(=O)C3=C(O)c4c(O)cccc4C[C@H]3C[C@@H]12
- T/C (dose: 3.75 mg/kg/injection, schedule: Q01DX010 (ip), vehicle: water): 100 % of control
- T/C (dose: 7.5 mg/kg/injection, schedule: Q01DX010 (ip), vehicle: saline): 120 % of control
- T/C (dose: 7.5 mg/kg/injection, schedule: Q01DX010 (ip), vehicle: water): 118 % of control
- T/C (dose: 15.0 mg/kg/injection, schedule: Q01DX010 (ip), vehicle: saline): 120 % of control
- T/C (dose: 20.0 mg/kg/injection, schedule: Q01DX010 (oral), vehicle: water): 109 % of control
- T/C (dose: 35.0 mg/kg/injection, schedule: Q01DX010 (oral), vehicle: water): 100 % of control
- T/C (dose: 50.0 mg/kg/injection, schedule: Q01DX010 (oral), vehicle: water): 100 % of control
- T/C (dose: 60.0 mg/kg/injection, schedule: Q01DX010 (ip), vehicle: saline): 100 % of control
- T/C (dose: 65.0 mg/kg/injection, schedule: Q01DX010 (oral), vehicle: water): 109 % of control
- T/C (dose: 80.0 mg/kg/injection, schedule: Q01DX010 (oral), vehicle: water): 90 % of control

Structure (SMILES): Cc1ccc(S(=O)(=O)Oc2cc([N+](=O)[O-])ccc2N)cc1
- T/C (dose: 100.0 mg/kg/injection, schedule: Q01DX001 (ip), vehicle: saline): 109 % of control
- T/C (dose: 200.0 mg/kg/injection, schedule: Q01DX001 (ip), vehicle: saline): 100 % of control
- T/C (dose: 400.0 mg/kg/injection, schedule: Q01DX001 (ip), vehicle: saline): 104 % of control

Structure (SMILES): CC(=O)Oc1cccc2c1C(=O)c1c(OC(C)=O)cccc1C2=O
- T/C (dose: 3.13 mg/kg/injection, schedule: Q04DX003 (ip), vehicle: Klucel (hydroxypropylcellulose) (HPC)): 101 % of control
- T/C (dose: 12.5 mg/kg/injection, schedule: Q04DX003 (ip), vehicle: Klucel (hydroxypropylcellulose) (HPC)): 99 % of control
- T/C (dose: 25.0 mg/kg/injection, schedule: Q04DX003 (ip), vehicle: Klucel (hydroxypropylcellulose) (HPC)): 117 % of control
- T/C (dose: 50.0 mg/kg/injection, schedule: Q04DX003 (ip), vehicle: Klucel (hydroxypropylcellulose) (HPC)): 108 % of control

Structure (SMILES): Nc1nc(N)c2cc(Sc3cccc(C(F)(F)F)c3)ccc2n1
- T/C [5]: 113 % of control

Structure (SMILES): CC(=N\O)/C(C)=N/O.CC(=N\O)/C(C)=N/O.CC1CC[N-]CC1.CC1CC[N-]CC1.CC1CC[N-]CC1.CC1CC[N-]CC1.[Cl][Rh][Cl].[Pt+2]
- T/C (dose: 0.39 mg/kg/injection, schedule: Q01DX009 (ip), vehicle: water): 110 % of control
- T/C (dose: 0.78 mg/kg/injection, schedule: Q01DX009 (ip), vehicle: water): 110 % of control
- T/C (dose: 1.56 mg/kg/injection, schedule: Q01DX009 (ip), vehicle: water): 98 % of control
- T/C (dose: 6.25 mg/kg/injection, schedule: Q01DX009 (ip), vehicle: water): 94 % of control
- T/C (dose: 12.5 mg/kg/injection, schedule: Q01DX009 (ip), vehicle: water): 99 % of control

Structure (SMILES): CCCCCCCCCCC[CH2][Hg][CH2]CCCCCCCCCCC
- T/C (dose: 100.0 mg/kg/injection, schedule: Q04DX003 (ip), vehicle: Klucel (hydroxypropylcellulose) (HPC)): 91 % of control
- T/C (dose: 200.0 mg/kg/injection, schedule: Q04DX003 (ip), vehicle: Klucel (hydroxypropylcellulose) (HPC)): 100 % of control

Structure (SMILES): O=C(/C=C/c1ccc(OCc2ccccc2)cc1)c1ccccn1
- T/C [5]: 97 % of control
- T/C [6]: 98 % of control
- T/C [7]: 96 % of control

Structure (SMILES): COc1ccc(C(O)c2ccccn2)cc1 (configuration not stated)
- T/C [8]: 100 % of control
- T/C [9]: 110 % of control
- T/C [10]: 105 % of control

Structure (SMILES): O=CNNC(=O)c1ccccn1
- T/C [5]: 96 % of control
- T/C (dose: 50.0 mg/kg/injection, schedule: Q01DX009 (ip), vehicle: saline): 100 % of control
- T/C (dose: 50.0 mg/kg/injection, schedule: Q04DX003 (ip), vehicle: saline): 100 % of control
- T/C [6]: 96 % of control
- T/C [1]: 104 % of control
- T/C [8]: 113 % of control
- T/C [2]: 100 % of control
- T/C [7]: 96 % of control
- T/C [9]: 109 % of control
- T/C [4]: 100 % of control

Structure (SMILES): CC1CCCN2C(=O)CN(N3CCOCC3)CC(=O)N12 (configuration not stated)
- T/C [11]: 121 % of control

Structure (SMILES): O=C1NC(c2cccc3ccccc23)Nc2ccc(Cl)cc21 (configuration not stated)
- T/C (dose: 50.0 mg/kg/injection, schedule: Q01DX009 (ip), vehicle: Klucel (hydroxypropylcellulose) (HPC)): 160 % of control
- T/C (dose: 75.0 mg/kg/injection, schedule: Q01DX009 (ip), vehicle: Klucel (hydroxypropylcellulose) (HPC)): 155 % of control
- T/C (dose: 100.0 mg/kg/injection, schedule: Q01DX009 (ip), vehicle: Klucel (hydroxypropylcellulose) (HPC)): 111 % of control

Structure (SMILES): Cc1ccccc1NC(=O)C1CCC(C)(C(=O)O)C1(C)C (configuration not stated)
- T/C [8]: 90 % of control
- T/C [9]: 100 % of control
- T/C [10]: 90 % of control

Structure (SMILES): CCOC(=O)c1ccc(NC(C)=O)c(CSC)c1
- T/C (dose: 50.0 mg/kg/injection, schedule: Q04DX002 (ip), vehicle: saline with Tween-80): 107 % of control
- T/C [11]: 98 % of control
- T/C (dose: 200.0 mg/kg/injection, schedule: Q04DX002 (ip), vehicle: saline with Tween-80): 99 % of control

Structure (SMILES): CC1=C(Cl)C(Cl)(Cl)C(=O)C(=O)C1(Cl)Cl
- T/C [12]: 100 % of control
- T/C [13]: 109 % of control
- T/C [14]: 113 % of control

Structure (SMILES): CCCCNC(C)(C)CSSSCC(C)(C)NCCCC
- T/C [12]: 110 % of control
- T/C [13]: 86 % of control
- T/C (dose: 12.5 mg/kg/injection, schedule: Q04DX003 (ip), vehicle: other): 98 % of control
- T/C [14]: 114 % of control
- T/C (dose: 25.0 mg/kg/injection, schedule: Q04DX003 (ip), vehicle: other): 117 % of control
- T/C (dose: 50.0 mg/kg/injection, schedule: Q01DX009 (ip), vehicle: other): 110 % of control
- T/C (dose: 50.0 mg/kg/injection, schedule: Q04DX003 (ip), vehicle: other): 117 % of control
- T/C (dose: 100.0 mg/kg/injection, schedule: Q04DX003 (ip), vehicle: other): 112 % of control

Structure (SMILES): CCc1ccc(NC(=O)c2ccccc2C(=O)O)cc1
- T/C [8]: 122 % of control
- T/C [9]: 104 % of control
- T/C [10]: 109 % of control

Structure (SMILES): CN1C(=O)C(C2Sc3ccccc3NC2=O)SC1=S (configuration not stated)
- T/C [5]: 102 % of control
- T/C [6]: 104 % of control
- T/C [7]: 99 % of control

Structure (SMILES): Brc1ccc(C[N+]23CN4CN(CN(C4)C2)C3)cc1
- T/C [1]: 115 % of control
- T/C [2]: 118 % of control
- T/C (dose: 132.0 mg/kg/injection, schedule: Q01DX009 (ip), vehicle: saline with Tween-80): 107 % of control and 108 % of control
- T/C [3]: 90 % of control
- T/C [4]: 122 % of control

Structure (SMILES): NC(=O)NN=C(CS)CS
- T/C (dose: 6.25 mg/kg/injection, schedule: Q01DX009 (ip), vehicle: gum acacia): 101 % of control
- T/C (dose: 12.5 mg/kg/injection, schedule: Q01DX009 (ip), vehicle: gum acacia): 100 % of control
- T/C (dose: 25.0 mg/kg/injection, schedule: Q01DX009 (ip), vehicle: gum acacia): 102 % of control
- T/C (dose: 50.0 mg/kg/injection, schedule: Q01DX009 (ip), vehicle: gum acacia): 100 % of control

Structure (SMILES): CCn1c2ccccc2c2cc(NC(=O)Nc3ccc([N+](=O)[O-])cc3C)ccc21
- T/C [5]: 100 % of control
- T/C [6]: 91 % of control
- T/C [7]: 91 % of control

Structure (SMILES): O=[N+]([O-])c1ccc(S(=O)(=O)Cc2ccccc2)c2nonc12
- T/C (dose: 25.0 mg/kg/injection, schedule: Q01DX009 (ip), vehicle: saline with Tween-80): 112 % of control

Structure (SMILES): Cc1ccc(Nc2c3ccccc3nc3ccccc23)cc1
- T/C (dose: 100.0 mg/kg/injection, schedule: Q01DX001 (ip), vehicle: Klucel (hydroxypropylcellulose) (HPC)): 109 % of control
- T/C (dose: 200.0 mg/kg/injection, schedule: Q01DX001 (ip), vehicle: Klucel (hydroxypropylcellulose) (HPC)): 118 % of control
- T/C (dose: 400.0 mg/kg/injection, schedule: Q01DX001 (ip), vehicle: Klucel (hydroxypropylcellulose) (HPC)): 113 % of control

Structure (SMILES): CC(C)(C)P(c1ccccc1)c1ccccc1
- T/C (dose: 50.0 mg/kg/injection, schedule: Q04DX003 (ip), vehicle: saline with Tween-80): 111 % of control
- T/C [8]: 107 % of control
- T/C [9]: 96 % of control

Structure (SMILES): CCCCC(NC(C)=O)C(=O)O (configuration not stated)
- T/C [6]: 119 % of control
- T/C (dose: 400.0 mg/kg/injection, schedule: Q01DX009 (ip), vehicle: saline with Tween-80): 113 % of control

— PubChem BioAssay AID328 (DTP/NCI, 2004)
